Experiments:
full length MALT1 enzyme = molecular target: T1, full length MALT1 enzyme (Homo sapiens, UniProt Q9UDY8); assay: MALT1 biochemical assay (fluorescence based, Ac-Leu-Arg-Ser-Arg-AMC cleavage); conditions: full length MALT1 protein, 2 h pre-incubation at RT, tetrapeptide substrate Ac-Leu-Arg-Ser-Arg-AMC, read-out: Malt 1 inhibition IC50
T1 construct: a fluorescence based assay with full length MALT1 enzyme
T1 sequence (Q9UDY8 1-824): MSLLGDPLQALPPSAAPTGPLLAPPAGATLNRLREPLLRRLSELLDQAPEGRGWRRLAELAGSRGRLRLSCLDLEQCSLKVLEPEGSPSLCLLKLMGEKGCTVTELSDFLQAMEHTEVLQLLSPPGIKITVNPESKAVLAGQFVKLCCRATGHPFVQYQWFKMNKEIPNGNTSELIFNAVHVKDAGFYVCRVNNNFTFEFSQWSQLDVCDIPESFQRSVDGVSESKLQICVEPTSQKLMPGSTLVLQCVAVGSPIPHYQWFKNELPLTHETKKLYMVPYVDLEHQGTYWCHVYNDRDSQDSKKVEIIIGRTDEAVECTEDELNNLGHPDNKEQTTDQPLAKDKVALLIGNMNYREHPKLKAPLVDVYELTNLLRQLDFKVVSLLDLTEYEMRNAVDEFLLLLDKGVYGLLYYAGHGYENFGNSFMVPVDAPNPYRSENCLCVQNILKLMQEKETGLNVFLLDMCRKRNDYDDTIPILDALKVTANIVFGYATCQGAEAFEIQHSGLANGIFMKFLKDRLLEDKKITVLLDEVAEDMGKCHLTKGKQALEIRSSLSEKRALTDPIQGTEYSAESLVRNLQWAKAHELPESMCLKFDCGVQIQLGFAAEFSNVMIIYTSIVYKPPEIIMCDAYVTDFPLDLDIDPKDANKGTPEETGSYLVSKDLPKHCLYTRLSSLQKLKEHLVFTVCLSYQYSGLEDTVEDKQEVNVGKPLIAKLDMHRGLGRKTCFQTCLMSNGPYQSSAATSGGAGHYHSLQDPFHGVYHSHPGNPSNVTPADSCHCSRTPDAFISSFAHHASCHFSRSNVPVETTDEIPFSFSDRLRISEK
Outline: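 Full-length MALT1 (100-300 ng/well) was pre-incubated with compound for 2 h at RT, then 100 μM Ac-LRSR-AMC was added for 4-12 h. Buffer was 50 mM MES, 150 mM NaCl, 0.1% CHAPS, 1 M ammonium citrate, 10 mM DTT, pH 7, with 0.5% DMSO. IC50 was derived from AMC fluorescence (ex 360/em 460 nm).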

[1] = test system: NF-kB transcriptional activity in HEK-293-NF-kB-Luc cell line overexpressing MALT1; assay: NF-kB reporter assay (luciferase, MALT1 stably overexpressed); format: cell-based; conditions: Homo sapiens, 24 h, HEK-293-NF-kB-Luc cells stably overexpressing MALT1, 24 h treatment, Bright Glo luminescence; read-out: NF-kB inhibition IC50
Outline: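 Inhibition of NF-κB activity was expressed relative to 0.1% DMSO wells, from luminescence after 10 min Bright Glo at ambient temperature. Compounds had been applied for 24 h to adhered MALT1-overexpressing HEK-293 NF-κB luciferase reporter cells.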

OCI-Ly-10 cells = assay: Anticancer assay (14 days), cell viability by CCK-8; format: cell-based; conditions: Homo sapiens, OCI-Ly10, 336 h, 14 days treatment, fresh treatment every 5th day, CCK-8 viability, read-out: Ly-10 (14d) inhibition IC50
Description: OCI-Ly-10 cells (UHN, Canada) seeded in culture media (IMDM+20% FBS) in 96-well plates were treated with various concentrations of the test compounds. Cells were treated for a period of 14 days (13-15 days depending on the confluency of cells) with fresh treatments every 5th day. After the first treatment, for all subsequent treatments, the cells were centrifuged, the spent media was removed and fresh media containing the test compound was added. Cell viability was assessed using CCK-8 kit (Dojindo Laboratories, China) as per manufacturer's instructions. Plates were read in colorimeter and absorbance was detected. (Detection at 450 nm; Background correction at 650 nm). % inhibition was calculated relative to the samples containing media with 0.1% DMSO alone as per the following formula

How did the IC50 (full length MALT1 enzyme) turn out when `CCOC(C)c1c(NC(=O)Nc2cnc(OC)c(Cl)c2)cnc2sc(C)nc12` (racemic) [Compound 162, 1-(5-Chloro-6-methoxypyridin-3-yl)-3-(7-(1-ethoxyethyl)-2-methylthiazolo[5,4-b]pyridin-6-yl)urea] was run?
The IC50 was 1 to 50 nM.

And the IC50 [1]?
The IC50 was 1 to 100 nM.

And the IC50 (OCI-Ly-10 cells)?
Its IC50 is 501 to 1500 nM.

`COC(c1c(NC(=O)Nc2cnc(-n3nccn3)c(C(F)(F)F)c2)cnc2sc(C)nc12)C(C)(C)C` (single isomer, unassigned) [Compound 57b, 1-(6-(2H-1,2,3-Triazol-2-yl)-5-(trifluoromethyl)pyridin-3-yl)-3-(7-(1-methoxy-2,2-dimethylpropyl)-2-methylthiazolo[5,4-b]pyridin-6-yl)urea] was tested. Which IC50 (full length MALT1 enzyme) did it give?
Its IC50 is 1 to 50 nM.

And the IC50 [1]?
The IC50 was 1 to 100 nM.

What about the IC50 (OCI-Ly-10 cells) of the same compound?
The IC50 was 26 to 100 nM.

`CCC(c1c(NC(=O)Nc2cnc(-n3nccn3)c(C(F)(F)F)c2)cnc2sc(C)nc12)N(C)C` (single isomer, unassigned) [Compound 75b, 1-(6-(2H-1,2,3-Triazol-2-yl)-5-(trifluoromethyl)pyridin-3-yl)-3-(7-(1-(dimethylamino)propyl)-2-methylthiazolo[5,4-b]pyridin-6-yl)urea] was tested. Which IC50 (full length MALT1 enzyme) did it give?
The IC50 was 51 to 100 nM.

And the IC50 [1]?
Its IC50 is 1 to 100 nM.

What about the IC50 (OCI-Ly-10 cells) of the same compound?
Its IC50 is 26 to 100 nM.

How did the IC50 (full length MALT1 enzyme) turn out when `Cc1nc2c(C(C3CC3)N(C)C)c(NC(=O)Nc3cnc(-n4nccn4)c(C(F)(F)F)c3)cnc2s1` (single isomer, unassigned) [Compound 76b, 1-(6-(2H-1,2,3-Triazol-2-yl)-5-(trifluoromethyl)pyridin-3-yl)-3-(7-(cyclopropyl(dimethylamino)methyl)-2-methylthiazolo[5,4-b]pyridin-6-yl)urea] was run?
The IC50 was 1 to 50 nM.

What about the IC50 [1] of the same compound?
Its IC50 is 1 to 100 nM.

What about the IC50 (OCI-Ly-10 cells) of the same compound?
The IC50 was 0.1 to 25 nM.

What does the source list for `COC(c1c(NC(=O)Nc2cnc(-n3nccn3)c(Cl)c2)cnc2sc(C)nc12)C(C)C` (single isomer, unassigned) [Compound 79b, 1-(5-Chloro-6-(2H-1,2,3-triazol-2-yl)pyridin-3-yl)-3-(7-(1-methoxy-2-methylpropyl)-2-methylthiazolo[5,4-b]pyridin-6-yl)urea]?
IC50 (full length MALT1 enzyme): 1 to 50 nM; IC50 [1]: 1 to 100 nM; IC50 (OCI-Ly-10 cells): 26 to 100 nM

Which results are given for `COc1nc(-n2nccn2)c(C(F)(F)F)cc1NC(=O)Nc1cnc2sc(C)nc2c1C(OC)C(C)C` (single isomer, unassigned) [Compound 80b, 1-(7-(1-Methoxy-2-methylpropyl)-2-methylthiazolo[5,4-b]pyridin-6-yl)-3-(2-methoxy-6-(2H-1,2,3-triazol-2-yl)-5-(trifluoromethyl)pyridin-3-yl)urea]?
IC50 (full length MALT1 enzyme): 1 to 50 nM; IC50 [1]: 1 to 100 nM; IC50 (OCI-Ly-10 cells): 26 to 100 nM

How did the IC50 (full length MALT1 enzyme) turn out when `COc1nc(-n2nccn2)c(Cl)cc1NC(=O)Nc1cnc2sc(C)nc2c1C(OC)C(C)C` (single isomer, unassigned) [Compound 81b, 1-(5-Chloro-2-methoxy-6-(2H-1,2,3-triazol-2-yl)pyridin-3-yl)-3-(7-(1-methoxy-2-methylpropyl)-2-methylthiazolo[5,4-b]pyridin-6-yl)urea] was run?
The IC50 was 1 to 50 nM.

What about the IC50 [1] of the same compound?
Its IC50 is 1 to 100 nM.

What about the IC50 (OCI-Ly-10 cells) of the same compound?
Its IC50 is 26 to 100 nM.

Which results are given for `COC(c1ccc(F)cc1)c1c(NC(=O)Nc2cnc(-n3nccn3)c(C(F)(F)F)c2)cnc2sc(C)nc12` (single isomer, unassigned) [Compound 85a, 1-(6-(2H-1,2,3-Triazol-2-yl)-5-(trifluoromethyl)pyridin-3-yl)-3-(7-((4-fluorophenyl)(methoxy)methyl)-2-methylthiazolo[5,4-b]pyridin-6-yl)urea]?
IC50 (full length MALT1 enzyme): 1 to 50 nM; IC50 [1]: 1 to 100 nM; IC50 (OCI-Ly-10 cells): 101 to 250 nM

What does the source list for `COC(C)(c1c(NC(=O)Nc2ccc(-n3nccn3)c(C(F)(F)F)c2)cnc2sc(C)nc12)C1CC1` (single isomer, unassigned) [Compound 94b, 1-(4-(2H-1,2,3-triazol-2-yl)-3-(trifluoromethyl)phenyl)-3-(7-(1-cyclopropyl-1-methoxyethyl)-2-methylthiazolo[5,4-b]pyridin-6-yl)urea]?
IC50 (full length MALT1 enzyme): 1 to 50 nM; IC50 [1]: 1 to 100 nM; IC50 (OCI-Ly-10 cells): 26 to 100 nM

How did the IC50 (full length MALT1 enzyme) turn out when `COC(c1c(NC(=O)Nc2cnc(-n3nccn3)c(C(F)(F)F)c2)cnc2sc(C)nc12)C(F)(F)F` (single isomer, unassigned) [Compound 95b, 1-(6-(2H-1,2,3-triazol-2-yl)-5-(trifluoromethyl)pyridin-3-yl)-3-(2-methyl-7-(2,2,2-trifluoro-1-methoxyethyl)thiazolo[5,4-b]pyridin-6-yl)urea] was run?
The IC50 was 1 to 50 nM.

And the IC50 [1]?
Its IC50 is 1 to 100 nM.

What about the IC50 (OCI-Ly-10 cells) of the same compound?
The IC50 was 0.1 to 25 nM.

How did the IC50 (full length MALT1 enzyme) turn out when `COC(C)c1c(NC(=O)Nc2ccc(-n3nccn3)c(C(F)(F)F)c2)cnc2sc(C)nc12` (single isomer, unassigned) [Compound 143b, 1-(4-(2H-1,2,3-Triazol-2-yl)-3-(trifluoromethyl)phenyl)-3-(7-(1-methoxyethyl)-2-methylthiazolo[5,4-b]pyridin-6-yl)urea] was run?
The IC50 was 1 to 50 nM.

And the IC50 [1]?
The IC50 was 1 to 100 nM.

What about the IC50 (OCI-Ly-10 cells) of the same compound?
Its IC50 is 0.1 to 25 nM.

With `COC(c1c(NC(=O)Nc2ccc(-n3nccn3)c(Cl)c2)cnc2sc(C)nc12)C1CC1` (single isomer, unassigned) [Compound 144b, 1-(3-Chloro-4-(2H-1,2,3-triazol-2-yl)phenyl)-3-(7-(cyclopropyl(methoxy)methyl)-2-methylthiazolo[5,4-b]pyridin-6-yl)urea] as the compound, how does the IC50 (full length MALT1 enzyme) read?
The IC50 was 1 to 50 nM.

And the IC50 [1]?
The IC50 was 1 to 100 nM.

What about the IC50 (OCI-Ly-10 cells) of the same compound?
The IC50 was 0.1 to 25 nM.

`CCC(OC)c1c(NC(=O)Nc2cnc(-n3nccn3)c(Cl)c2)cnc2sc(C)nc12` (single isomer, unassigned) [Compound 145b, 1-(5-Chloro-6-(2H-1,2,3-triazol-2-yl)pyridin-3-yl)-3-(7-(1-methoxypropyl)-2-methylthiazolo[5,4-b]pyridin-6-yl)urea] was tested. Which IC50 (full length MALT1 enzyme) did it give?
The IC50 was 1 to 50 nM.

What about the IC50 [1] of the same compound?
Its IC50 is 1 to 100 nM.

And the IC50 (OCI-Ly-10 cells)?
The IC50 was 0.1 to 25 nM.

For `CCC(OC)c1c(NC(=O)Nc2ccc(-n3nccn3)c(C(F)(F)F)c2)cnc2sc(C)nc12` (single isomer, unassigned) [Compound 147b, 1-(4-(2H-1,2,3-Triazol-2-yl)-3-(trifluoromethyl)phenyl)-3-(7-(1-methoxypropyl)-2-methylthiazolo[5,4-b]pyridin-6-yl)urea], which IC50 (full length MALT1 enzyme) is on record?
Its IC50 is 1 to 50 nM.

And the IC50 [1]?
Its IC50 is 1 to 100 nM.

And the IC50 (OCI-Ly-10 cells)?
Its IC50 is 0.1 to 25 nM.

How did the IC50 (full length MALT1 enzyme) turn out when `COC(c1c(NC(=O)Nc2ccc(-n3nccn3)c(C(F)(F)F)c2)cnc2sc(C)nc12)C1CC1` (single isomer, unassigned) [Compound 153b, 1-(4-(2H-1,2,3-Triazol-2-yl)-3-(trifluoromethyl)phenyl)-3-(7-(cyclopropyl(methoxy)methyl)-2-methylthiazolo[5,4-b]pyridin-6-yl)urea] was run?
The IC50 was 1 to 50 nM.

And the IC50 [1]?
The IC50 was 1 to 100 nM.

What about the IC50 (OCI-Ly-10 cells) of the same compound?
The IC50 was 26 to 100 nM.

How did the IC50 (full length MALT1 enzyme) turn out when `COC(C)c1c(NC(=O)Nc2ccc(-n3nccn3)c(Cl)c2)cnc2sc(C)nc12` (single isomer, unassigned) [Compound 158b, 1-(3-Chloro-4-(2H-1,2,3-triazol-2-yl)phenyl)-3-(7-(1-methoxyethyl)-2-methylthiazolo[5,4-b]pyridin-6-yl)urea] was run?
The IC50 was 1 to 50 nM.

What about the IC50 [1] of the same compound?
Its IC50 is 1 to 100 nM.

And the IC50 (OCI-Ly-10 cells)?
The IC50 was 0.1 to 25 nM.

How did the IC50 (full length MALT1 enzyme) turn out when `CCOC(C)c1c(NC(=O)Nc2cnc(-n3nccn3)c(C(F)(F)F)c2)cnc2sc(C)nc12` (single isomer, unassigned) [Compound 165b, 1-(6-(2H-1,2,3-Triazol-2-yl)-5-(trifluoromethyl)pyridin-3-yl)-3-(7-(1-ethoxyethyl)-2-methylthiazolo[5,4-b]pyridin-6-yl)urea] was run?
The IC50 was 1 to 50 nM.

What about the IC50 [1] of the same compound?
Its IC50 is 1 to 100 nM.

And the IC50 (OCI-Ly-10 cells)?
Its IC50 is 26 to 100 nM.

What does the source list for `COC(C)c1c(NC(=O)Nc2cc(-n3nccn3)cc(C(F)(F)F)c2)cnc2sc(C)nc12` (single isomer, unassigned) [Compound 217b, (S) or (R)-1-(3-(2H-1,2,3-triazol-2-yl)-5-(trifluoromethyl)phenyl)-3-(7-(1-methoxyethyl)-2-methylthiazolo[5,4-b]pyridin-6-yl)urea]?
IC50 (full length MALT1 enzyme): 51 to 100 nM; IC50 [1]: 1 to 100 nM; IC50 (OCI-Ly-10 cells): 251 to 500 nM
